Reference: publication doi:10.1101/2024.08.19.608619, “Discovery of potent SARS-CoV-2 nsp3 macrodomain inhibitors uncovers lack of translation to cellular antiviral response” (bioRxiv, 2024)

Tested on: not listed separately
Experiment: in vitro
Conditions: human, hela-ace2 cells, 50.0

SMILES	CC50 at 24 h
CC(C)[C@H](Nc1ncnc2[nH]ccc12)c1ccc2c(c1)S(=O)(=O)CCC2 [ASAP-0008674]	> 20 µM

Tested on: not listed separately
Experiment: Hepatic microsomal stability, MLM
Assay type: in vitro ADME
Conditions: In vitro mouse liver microsomal stability

SMILES	clint	perc_remaining	t_half
CC(C)[C@H](Nc1ncnc2[nH]ccc12)c1ccc2c(c1)S(=O)(=O)CCC2 [ASAP-0008674]	207.0 µL/min/mg	3.0%	8.1 min

Same assay, conditions: In vitro mouse liver microsomal stability, no cofactor

SMILES	perc_remaining_no_cofactor
CC(C)[C@H](Nc1ncnc2[nH]ccc12)c1ccc2c(c1)S(=O)(=O)CCC2 [ASAP-0008674]	104.0%

Target: T1, 5-HT3 (h) (Homo sapiens, UniProt P46098)
T1 construct: purchased Eurofins Cerep (SafetyScreen44), recognised from the panel format
T1 sequence (P46098 24-478): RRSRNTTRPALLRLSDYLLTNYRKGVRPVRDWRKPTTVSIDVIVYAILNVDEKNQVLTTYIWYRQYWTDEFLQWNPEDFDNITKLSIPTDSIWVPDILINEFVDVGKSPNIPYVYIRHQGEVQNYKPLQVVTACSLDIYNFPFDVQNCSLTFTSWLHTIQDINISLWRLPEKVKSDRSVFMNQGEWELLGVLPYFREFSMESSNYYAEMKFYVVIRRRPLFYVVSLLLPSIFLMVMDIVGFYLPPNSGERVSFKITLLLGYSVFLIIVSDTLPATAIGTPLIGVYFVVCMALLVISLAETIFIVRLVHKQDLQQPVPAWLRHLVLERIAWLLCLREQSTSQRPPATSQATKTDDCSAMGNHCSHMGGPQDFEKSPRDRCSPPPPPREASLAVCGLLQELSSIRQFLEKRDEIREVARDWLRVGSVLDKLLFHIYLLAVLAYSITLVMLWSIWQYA
Experiment: In vitro CEREP profiling, 5-HT3 (h) (antagonist radioligand)
Assay type: binding
Conditions: test compound concentration 10 uM
Excerpt: (§1) Supplement media-1.zip/Safety_Panel_Profile.csv, table | column: perc_inhibition

SMILES	perc_inhibition (% inhibition of the binding of a ligand specific for each target)
CC(C)[C@H](Nc1ncnc2[nH]ccc12)c1ccc2c(c1)S(=O)(=O)CCC2 [ASAP-0008674]	8%

Target: T2, N neuronal alpha4beta2 (h) (Homo sapiens, UniProt P17787+P43681)
T2 construct: purchased Eurofins Cerep (SafetyScreen44), recognised from the panel format
T2 sequence (P43681 29-627 limits assumed): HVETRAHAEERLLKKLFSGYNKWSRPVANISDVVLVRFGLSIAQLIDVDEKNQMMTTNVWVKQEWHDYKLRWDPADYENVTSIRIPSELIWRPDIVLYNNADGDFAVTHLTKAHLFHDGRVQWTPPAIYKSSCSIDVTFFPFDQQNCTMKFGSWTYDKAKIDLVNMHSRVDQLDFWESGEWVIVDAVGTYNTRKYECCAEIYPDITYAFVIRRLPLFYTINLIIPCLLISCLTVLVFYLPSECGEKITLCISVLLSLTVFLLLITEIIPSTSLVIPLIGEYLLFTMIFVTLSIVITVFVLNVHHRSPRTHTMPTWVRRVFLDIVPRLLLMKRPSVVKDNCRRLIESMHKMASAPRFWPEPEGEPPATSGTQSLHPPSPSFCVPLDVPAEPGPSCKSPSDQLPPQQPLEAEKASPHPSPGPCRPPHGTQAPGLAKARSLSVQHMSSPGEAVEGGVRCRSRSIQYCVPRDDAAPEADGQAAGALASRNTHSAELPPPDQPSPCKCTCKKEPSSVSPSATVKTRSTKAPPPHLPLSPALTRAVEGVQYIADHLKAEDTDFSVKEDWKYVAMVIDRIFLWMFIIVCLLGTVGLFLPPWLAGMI
T2 sequence (P17787 26-502): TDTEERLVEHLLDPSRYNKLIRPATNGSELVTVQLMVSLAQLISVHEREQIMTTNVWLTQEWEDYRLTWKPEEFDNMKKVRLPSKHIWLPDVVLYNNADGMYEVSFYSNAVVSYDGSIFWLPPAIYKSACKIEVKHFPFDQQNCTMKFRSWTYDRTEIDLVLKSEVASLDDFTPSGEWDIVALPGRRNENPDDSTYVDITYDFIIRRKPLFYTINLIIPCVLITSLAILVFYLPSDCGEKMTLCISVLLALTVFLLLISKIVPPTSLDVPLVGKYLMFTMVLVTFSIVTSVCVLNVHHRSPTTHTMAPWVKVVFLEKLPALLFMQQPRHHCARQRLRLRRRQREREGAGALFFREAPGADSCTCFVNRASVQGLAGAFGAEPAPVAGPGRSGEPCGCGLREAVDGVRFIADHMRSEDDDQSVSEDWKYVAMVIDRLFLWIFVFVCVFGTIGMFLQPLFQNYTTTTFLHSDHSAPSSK
Experiment: In vitro CEREP profiling, N neuronal alpha4beta2 (h) (agonist radioligand)
Assay type: binding
Conditions: test compound concentration 10 uM
Excerpt: as §1

SMILES	perc_inhibition (% inhibition of the binding of a ligand specific for each target)
CC(C)[C@H](Nc1ncnc2[nH]ccc12)c1ccc2c(c1)S(=O)(=O)CCC2 [ASAP-0008674]	1%

Tested on: not listed separately
Experiment: In vitro rat SD liver microsomal stability
Assay type: in vitro ADME
Conditions: not given
Excerpt: Supplement media-1.zip/Hepatic_Microsomal_Stability.csv, table | column: clint; t_half

SMILES	clint	t_half
CC(C)[C@H](Nc1ncnc2[nH]ccc12)c1ccc2c(c1)S(=O)(=O)CCC2 [ASAP-0008674]	155.0 µL/min/mg	4.49 min

Target: T3, norepinephrine transporter (h) (Homo sapiens, UniProt P23975)
T3 construct: purchased Eurofins Cerep (SafetyScreen44), recognised from the panel format
T3 sequence (P23975 whole entry): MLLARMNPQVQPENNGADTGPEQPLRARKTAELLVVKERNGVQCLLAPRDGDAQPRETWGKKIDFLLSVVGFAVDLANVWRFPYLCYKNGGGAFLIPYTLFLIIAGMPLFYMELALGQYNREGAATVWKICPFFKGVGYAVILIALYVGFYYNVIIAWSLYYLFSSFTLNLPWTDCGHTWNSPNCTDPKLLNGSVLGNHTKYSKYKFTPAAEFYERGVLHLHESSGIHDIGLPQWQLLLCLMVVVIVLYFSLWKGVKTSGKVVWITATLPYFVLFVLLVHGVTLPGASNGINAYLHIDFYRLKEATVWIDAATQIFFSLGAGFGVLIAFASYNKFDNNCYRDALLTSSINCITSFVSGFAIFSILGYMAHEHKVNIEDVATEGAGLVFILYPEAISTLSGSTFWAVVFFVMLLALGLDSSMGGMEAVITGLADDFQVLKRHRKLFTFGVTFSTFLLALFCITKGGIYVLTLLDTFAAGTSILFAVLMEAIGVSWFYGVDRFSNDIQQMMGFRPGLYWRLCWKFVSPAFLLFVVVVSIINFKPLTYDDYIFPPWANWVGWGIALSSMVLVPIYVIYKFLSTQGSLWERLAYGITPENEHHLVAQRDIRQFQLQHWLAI
Experiment: In vitro CEREP profiling, norepinephrine transporter (h) (antagonist radioligand)
Assay type: binding
Conditions: test compound concentration 10 uM
Excerpt: as §1

SMILES	perc_inhibition (% inhibition of the binding of a ligand specific for each target)
CC(C)[C@H](Nc1ncnc2[nH]ccc12)c1ccc2c(c1)S(=O)(=O)CCC2 [ASAP-0008674]	-3%

Tested on: not listed separately
Experiment: In vitro human hepatocyte stability
Assay type: in vitro ADME
Conditions: not given
Excerpt: Supplement media-1.zip/Hepatocyte_Stability.csv, table | column: clint; t_half

SMILES	clint	t_half
CC(C)[C@H](Nc1ncnc2[nH]ccc12)c1ccc2c(c1)S(=O)(=O)CCC2 [ASAP-0008674]	27.9 uL/min/1E6 cells	24.8 min

Target: T4, delta (DOP) (h) (Homo sapiens, UniProt P41143)
T4 construct: purchased Eurofins Cerep (SafetyScreen44), recognised from the panel format
T4 sequence (P41143 whole entry): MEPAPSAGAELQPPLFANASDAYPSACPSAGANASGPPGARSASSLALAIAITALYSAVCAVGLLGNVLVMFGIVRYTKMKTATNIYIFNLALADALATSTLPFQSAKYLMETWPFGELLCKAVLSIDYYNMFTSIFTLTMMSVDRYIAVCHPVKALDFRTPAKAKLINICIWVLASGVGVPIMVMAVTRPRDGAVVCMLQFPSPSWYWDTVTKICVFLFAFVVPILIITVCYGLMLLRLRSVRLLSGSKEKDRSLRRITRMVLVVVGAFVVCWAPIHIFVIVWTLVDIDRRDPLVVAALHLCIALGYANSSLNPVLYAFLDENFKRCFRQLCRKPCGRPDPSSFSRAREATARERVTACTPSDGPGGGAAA
Experiment: In vitro CEREP profiling, delta (DOP) (h) (agonist radioligand)
Assay type: binding
Conditions: test compound concentration 10 uM
Excerpt: as §1

SMILES	perc_inhibition (% inhibition of the binding of a ligand specific for each target)
CC(C)[C@H](Nc1ncnc2[nH]ccc12)c1ccc2c(c1)S(=O)(=O)CCC2 [ASAP-0008674]	30%

Target: T5, CB2 (h) (Homo sapiens, UniProt P34972)
T5 construct: purchased Eurofins Cerep (SafetyScreen44), recognised from the panel format
T5 sequence (P34972 whole entry): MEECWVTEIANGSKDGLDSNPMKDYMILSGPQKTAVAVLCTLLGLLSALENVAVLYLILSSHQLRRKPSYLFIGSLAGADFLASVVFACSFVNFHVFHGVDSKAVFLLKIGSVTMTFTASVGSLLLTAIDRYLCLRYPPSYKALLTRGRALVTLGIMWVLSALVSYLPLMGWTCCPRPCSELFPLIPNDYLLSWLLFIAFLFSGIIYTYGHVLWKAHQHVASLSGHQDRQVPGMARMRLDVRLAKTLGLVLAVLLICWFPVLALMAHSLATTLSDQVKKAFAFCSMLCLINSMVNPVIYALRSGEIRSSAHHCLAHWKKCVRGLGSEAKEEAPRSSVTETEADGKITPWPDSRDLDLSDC
Experiment: In vitro CEREP profiling, CB2 (h) (agonist radioligand)
Assay type: binding
Conditions: test compound 10 uM
Excerpt: as §1

SMILES	perc_inhibition (% inhibition of the binding of a ligand specific for each target)
CC(C)[C@H](Nc1ncnc2[nH]ccc12)c1ccc2c(c1)S(=O)(=O)CCC2 [ASAP-0008674]	-13%

Tested on: not listed separately
Experiment: Protein binding
Assay type: in vitro ADME
Conditions: In vitro dog plasma protein binding
Excerpt: Supplement media-1.zip/Protein_Binding.csv, table | column: fu; perc_bound; perc_free; perc_recovered

SMILES	fu	perc_bound	perc_free	perc_recovered
CC(C)[C@H](Nc1ncnc2[nH]ccc12)c1ccc2c(c1)S(=O)(=O)CCC2 [ASAP-0008674]	0.148	85.2%	14.8%	97.58%

Same assay, conditions: In vitro fetal calf serum protein binding

SMILES	fu	perc_bound	perc_free	perc_recovered
CC(C)[C@H](Nc1ncnc2[nH]ccc12)c1ccc2c(c1)S(=O)(=O)CCC2 [ASAP-0008674]	0.095	90.5%	9.5%	94.23%

Same assay, conditions: In vitro human plasma protein binding

SMILES	fu	perc_bound	perc_free	perc_recovered
CC(C)[C@H](Nc1ncnc2[nH]ccc12)c1ccc2c(c1)S(=O)(=O)CCC2 [ASAP-0008674]	0.144	85.6%	14.4%	95.79%

Same assay, conditions: In vitro mouse plasma protein binding

SMILES	fu	perc_bound	perc_free	perc_recovered
CC(C)[C@H](Nc1ncnc2[nH]ccc12)c1ccc2c(c1)S(=O)(=O)CCC2 [ASAP-0008674]	0.124	87.6%	12.4%	89.46%

Same assay, conditions: In vitro rat plasma protein binding

SMILES	fu	perc_bound	perc_free	perc_recovered
CC(C)[C@H](Nc1ncnc2[nH]ccc12)c1ccc2c(c1)S(=O)(=O)CCC2 [ASAP-0008674]	0.189	81.1%	18.9%	91.14%

Target: T6, CCK1 (CCKA) (h) (Homo sapiens, UniProt P32238)
T6 construct: purchased Eurofins Cerep (SafetyScreen44), recognised from the panel format
T6 sequence (P32238 1-428): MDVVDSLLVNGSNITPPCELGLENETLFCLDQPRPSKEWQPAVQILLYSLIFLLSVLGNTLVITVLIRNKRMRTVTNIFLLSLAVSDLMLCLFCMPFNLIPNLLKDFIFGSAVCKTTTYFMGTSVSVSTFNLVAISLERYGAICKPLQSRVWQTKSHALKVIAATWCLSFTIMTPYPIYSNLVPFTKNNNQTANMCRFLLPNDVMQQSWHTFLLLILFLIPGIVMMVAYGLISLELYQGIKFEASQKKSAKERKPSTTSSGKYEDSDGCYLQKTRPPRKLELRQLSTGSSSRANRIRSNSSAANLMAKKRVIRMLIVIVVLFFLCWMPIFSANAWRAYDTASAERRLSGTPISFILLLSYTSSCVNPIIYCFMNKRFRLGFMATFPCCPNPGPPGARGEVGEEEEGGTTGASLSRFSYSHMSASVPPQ
Experiment: In vitro CEREP profiling, CCK1 (CCKA) (h) (agonist radioligand)
Assay type: binding
Conditions: test compound 10 uM
Excerpt: as §1

SMILES	perc_inhibition (% inhibition of the binding of a ligand specific for each target)
CC(C)[C@H](Nc1ncnc2[nH]ccc12)c1ccc2c(c1)S(=O)(=O)CCC2 [ASAP-0008674]	-2%

Tested on: BZD (central)
Experiment: In vitro CEREP profiling, BZD (central) (agonist radioligand)
Assay type: binding
Conditions: test compound 10 uM
Excerpt: as §1

SMILES	perc_inhibition (% inhibition of the binding of a ligand specific for each target)
CC(C)[C@H](Nc1ncnc2[nH]ccc12)c1ccc2c(c1)S(=O)(=O)CCC2 [ASAP-0008674]	4%

Target: T7, MAO-A (Rattus norvegicus, UniProt P21396)
T7 construct: purchased Eurofins Cerep (SafetyScreen44), recognised from the panel format
T7 sequence (P21396 1-526): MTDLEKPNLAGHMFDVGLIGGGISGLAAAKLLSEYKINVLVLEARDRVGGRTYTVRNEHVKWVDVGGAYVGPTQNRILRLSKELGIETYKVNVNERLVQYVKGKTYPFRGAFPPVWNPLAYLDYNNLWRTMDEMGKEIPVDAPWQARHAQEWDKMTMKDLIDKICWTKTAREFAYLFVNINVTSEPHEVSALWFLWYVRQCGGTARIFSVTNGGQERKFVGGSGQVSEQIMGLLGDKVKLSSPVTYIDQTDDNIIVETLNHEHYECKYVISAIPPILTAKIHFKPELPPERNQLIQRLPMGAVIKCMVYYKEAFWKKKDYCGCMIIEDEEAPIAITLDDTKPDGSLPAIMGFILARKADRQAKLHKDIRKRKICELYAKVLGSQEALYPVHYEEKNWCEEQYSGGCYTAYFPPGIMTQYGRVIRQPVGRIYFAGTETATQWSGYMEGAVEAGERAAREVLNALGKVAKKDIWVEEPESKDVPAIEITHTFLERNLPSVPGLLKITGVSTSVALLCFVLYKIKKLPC
Experiment: In vitro CEREP profiling, MAO-A (antagonist radioligand)
Assay type: binding
Conditions: test compound concentration 10 uM
Excerpt: as §1

SMILES	perc_inhibition (% inhibition of the binding of a ligand specific for each target)
CC(C)[C@H](Nc1ncnc2[nH]ccc12)c1ccc2c(c1)S(=O)(=O)CCC2 [ASAP-0008674]	7%

Target: T8, M3 (h) (Homo sapiens, UniProt P20309)
T8 construct: purchased Eurofins Cerep (SafetyScreen44), recognised from the panel format
T8 sequence (P20309 whole entry): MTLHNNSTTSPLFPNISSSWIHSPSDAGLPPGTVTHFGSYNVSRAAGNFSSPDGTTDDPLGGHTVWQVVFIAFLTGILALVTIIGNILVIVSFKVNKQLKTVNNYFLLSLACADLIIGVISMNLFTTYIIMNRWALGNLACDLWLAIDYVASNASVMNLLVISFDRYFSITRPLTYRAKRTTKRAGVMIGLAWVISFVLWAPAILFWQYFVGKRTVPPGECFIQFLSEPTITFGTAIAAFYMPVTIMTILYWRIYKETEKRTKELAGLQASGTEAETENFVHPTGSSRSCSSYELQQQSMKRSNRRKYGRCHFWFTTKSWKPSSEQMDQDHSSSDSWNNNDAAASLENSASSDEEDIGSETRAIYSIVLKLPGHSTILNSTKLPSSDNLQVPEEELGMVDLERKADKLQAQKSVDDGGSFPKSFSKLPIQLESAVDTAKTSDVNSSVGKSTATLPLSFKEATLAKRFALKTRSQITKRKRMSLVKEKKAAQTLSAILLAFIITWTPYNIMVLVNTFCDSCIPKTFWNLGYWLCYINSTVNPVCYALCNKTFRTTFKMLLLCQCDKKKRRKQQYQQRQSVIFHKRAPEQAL
Experiment: In vitro CEREP profiling, M3 (h) (antagonist radioligand)
Assay type: binding
Conditions: test compound concentration 10 uM
Excerpt: as §1

SMILES	perc_inhibition (% inhibition of the binding of a ligand specific for each target)
CC(C)[C@H](Nc1ncnc2[nH]ccc12)c1ccc2c(c1)S(=O)(=O)CCC2 [ASAP-0008674]	5%

Target: T9, H2 (h) (Homo sapiens, UniProt P25021)
T9 construct: purchased Eurofins Cerep (SafetyScreen44), recognised from the panel format
T9 sequence (P25021 whole entry): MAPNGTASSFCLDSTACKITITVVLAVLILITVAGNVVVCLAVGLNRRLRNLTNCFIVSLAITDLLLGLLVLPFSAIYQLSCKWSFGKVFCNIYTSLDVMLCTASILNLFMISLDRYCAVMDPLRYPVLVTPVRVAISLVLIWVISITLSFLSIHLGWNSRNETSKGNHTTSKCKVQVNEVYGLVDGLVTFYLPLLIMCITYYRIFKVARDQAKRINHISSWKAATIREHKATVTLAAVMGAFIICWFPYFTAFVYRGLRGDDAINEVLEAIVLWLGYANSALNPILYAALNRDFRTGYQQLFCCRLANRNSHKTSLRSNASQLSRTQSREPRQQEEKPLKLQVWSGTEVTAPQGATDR
Experiment: In vitro CEREP profiling, H2 (h) (antagonist radioligand)
Assay type: binding
Conditions: test compound concentration 10 uM
Excerpt: as §1

SMILES	perc_inhibition (% inhibition of the binding of a ligand specific for each target)
CC(C)[C@H](Nc1ncnc2[nH]ccc12)c1ccc2c(c1)S(=O)(=O)CCC2 [ASAP-0008674]	-6%
